# In PubChem BioAssay (NCI):
#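 Briefly, cells in 96-well plates were exposed to five compound concentrations for 48 h, and endpoints were estimated by linear interpolation. GI50: concentration for 50% inhibition of growth. TGI denotes the concentration required for complete inhibition of growth.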
# What was measured:
# Experiment in all cases: growth of human tumour cells (NCI), 48 h
# HCT-116 colon = system: HCT-116 colon
# SK-MEL-5 melanoma = system: SK-MEL-5 melanoma
# SW-620 colon = system: SW-620 colon
# HT29 colon = system: HT29 colon
# KM12 colon = system: KM12 colon
# HCC-2998 colon = system: HCC-2998 colon
# NCI/ADR-RES ovarian = system: NCI/ADR-RES ovarian
# LOX IMVI melanoma = system: LOX IMVI melanoma
# NCI-H522 lung = system: NCI-H522 lung
# 786-0 renal = system: 786-0 renal
# HOP-92 NSCLC = system: HOP-92 NSCLC
# OVCAR-4 ovarian = system: OVCAR-4 ovarian
# HCT-15 colon = system: HCT-15 colon
# MALME-3M melanoma = system: MALME-3M melanoma
# OVCAR-5 ovarian = system: OVCAR-5 ovarian
# NCI-H23 lung = system: NCI-H23 lung
# CAKI-1 renal = system: CAKI-1 renal
# ACHN renal = system: ACHN renal
# SN12C renal = system: SN12C renal
# BT-549 breast = system: BT-549 breast
# HS 578T breast = system: HS 578T breast
# SNB-19 CNS = system: SNB-19 CNS
# SK-MEL-28 melanoma = system: SK-MEL-28 melanoma
# RXF 393 renal = system: RXF 393 renal
# COLO 205 colon = system: COLO 205 colon
# UACC-257 melanoma = system: UACC-257 melanoma
# EKVX NSCLC = system: EKVX NSCLC
# RPMI-8226 leukemia = system: RPMI-8226 leukemia
# TK-10 renal = system: TK-10 renal
# SK-OV-3 ovarian = system: SK-OV-3 ovarian
# SR leukemia = system: SR leukemia
# NCI-H460 lung = system: NCI-H460 lung
# OVCAR-8 ovarian = system: OVCAR-8 ovarian
# A549 NSCLC = system: A549 NSCLC
# HL-60(TB) leukemia = system: HL-60(TB) leukemia
# PC-3 prostate = system: PC-3 prostate
# OVCAR-3 ovarian = system: OVCAR-3 ovarian
# MCF7 breast = system: MCF7 breast
# HOP-62 NSCLC = system: HOP-62 NSCLC
# MOLT-4 leukemia = system: MOLT-4 leukemia
# SNB-75 CNS = system: SNB-75 CNS
# K-562 leukemia = system: K-562 leukemia
# SF-295 CNS = system: SF-295 CNS
# SF-539 CNS = system: SF-539 CNS
# NCI-H226 lung = system: NCI-H226 lung
# MDA-MB-468 breast = system: MDA-MB-468 breast
# M14 melanoma = system: M14 melanoma
# DU-145 prostate = system: DU-145 prostate
# MDA-MB-231 breast = system: MDA-MB-231 breast
# SK-MEL-2 melanoma = system: SK-MEL-2 melanoma
# SF-268 CNS = system: SF-268 CNS
# T-47D breast = system: T-47D breast
# UACC-62 melanoma = system: UACC-62 melanoma
# MDA-MB-435 = system: MDA-MB-435
# IGROV1 ovarian = system: IGROV1 ovarian
# UO-31 renal = system: UO-31 renal
# CCRF-CEM leukemia = system: CCRF-CEM leukemia
# A498 renal = system: A498 renal
# U251 CNS = system: U251 CNS
structure (smiles),measurement,setting,value
COc1ccc2[nH]c(O)c(N=NC(=O)COc3ccc(NC(=O)Nc4ccc(Cl)cc4)cc3)c2c1,GI50,HCT-116 colon,2.96 µM
same,TGI,HCT-116 colon,11.5 µM
same,GI50,SK-MEL-5 melanoma,5.9 µM
same,TGI,SK-MEL-5 melanoma,18.9 µM
same,GI50,SW-620 colon,2.61 µM
same,TGI,SW-620 colon,13.2 µM
same,GI50,HT29 colon,3.22 µM
same,TGI,HT29 colon,14 µM
same,GI50,KM12 colon,3.21 µM
same,TGI,KM12 colon,13.4 µM
same,GI50,HCC-2998 colon,5.33 µM
same,TGI,HCC-2998 colon,25.9 µM
same,GI50,NCI/ADR-RES ovarian,> 100 µM
same,TGI,NCI/ADR-RES ovarian,> 100 µM
same,GI50,LOX IMVI melanoma,1.87 µM
same,TGI,LOX IMVI melanoma,3.81 µM
same,GI50,NCI-H522 lung,2.23 µM
same,TGI,NCI-H522 lung,5.85 µM
same,GI50,786-0 renal,7.32 µM
same,TGI,786-0 renal,24.9 µM
same,GI50,HOP-92 NSCLC,2.43 µM
same,TGI,HOP-92 NSCLC,7.31 µM
same,GI50,OVCAR-4 ovarian,2.94 µM
same,TGI,OVCAR-4 ovarian,11 µM
same,GI50,HCT-15 colon,> 100 µM
same,TGI,HCT-15 colon,> 100 µM
same,GI50,MALME-3M melanoma,1.77 µM
same,TGI,MALME-3M melanoma,3.61 µM
same,GI50,OVCAR-5 ovarian,6.34 µM
same,TGI,OVCAR-5 ovarian,20 µM
same,GI50,NCI-H23 lung,2.68 µM
same,TGI,NCI-H23 lung,8.54 µM
same,GI50,CAKI-1 renal,16.6 µM
same,TGI,CAKI-1 renal,33.7 µM
same,GI50,ACHN renal,19.3 µM
same,TGI,ACHN renal,58.8 µM
same,GI50,SN12C renal,3.03 µM
same,TGI,SN12C renal,11.4 µM
same,GI50,BT-549 breast,12.1 µM
same,TGI,BT-549 breast,26.6 µM
same,GI50,HS 578T breast,2.8 µM
same,TGI,HS 578T breast,13.4 µM
same,GI50,SNB-19 CNS,3 µM
same,TGI,SNB-19 CNS,10.9 µM
same,GI50,SK-MEL-28 melanoma,1.81 µM
same,TGI,SK-MEL-28 melanoma,3.56 µM
same,GI50,RXF 393 renal,6.26 µM
same,TGI,RXF 393 renal,22.2 µM
same,GI50,COLO 205 colon,3.63 µM
same,TGI,COLO 205 colon,13.2 µM
same,GI50,UACC-257 melanoma,13.1 µM
same,TGI,UACC-257 melanoma,28.2 µM
same,GI50,EKVX NSCLC,18.7 µM
same,TGI,EKVX NSCLC,> 100 µM
same,GI50,RPMI-8226 leukemia,6.58 µM
same,TGI,RPMI-8226 leukemia,68.8 µM
same,GI50,TK-10 renal,20.8 µM
same,TGI,TK-10 renal,48.3 µM
same,GI50,SK-OV-3 ovarian,12.7 µM
same,TGI,SK-OV-3 ovarian,27.6 µM
same,GI50,SR leukemia,4.15 µM
same,TGI,SR leukemia,> 100 µM
same,GI50,NCI-H460 lung,1.84 µM
same,TGI,NCI-H460 lung,3.97 µM
same,GI50,OVCAR-8 ovarian,10.5 µM
same,TGI,OVCAR-8 ovarian,37.9 µM
same,GI50,A549 NSCLC,8.39 µM
same,TGI,A549 NSCLC,44.4 µM
same,GI50,HL-60(TB) leukemia,23.6 µM
same,TGI,HL-60(TB) leukemia,> 100 µM
same,GI50,PC-3 prostate,3.39 µM
same,TGI,PC-3 prostate,14.9 µM
same,GI50,OVCAR-3 ovarian,2.21 µM
same,TGI,OVCAR-3 ovarian,6.34 µM
same,GI50,MCF7 breast,2.88 µM
same,TGI,MCF7 breast,10.2 µM
same,GI50,HOP-62 NSCLC,2.54 µM
same,TGI,HOP-62 NSCLC,6.4 µM
same,GI50,MOLT-4 leukemia,9.72 µM
same,TGI,MOLT-4 leukemia,51.2 µM
same,GI50,SNB-75 CNS,8.94 µM
same,TGI,SNB-75 CNS,27.7 µM
same,GI50,K-562 leukemia,5.36 µM
same,TGI,K-562 leukemia,> 100 µM
same,GI50,SF-295 CNS,6.63 µM
same,TGI,SF-295 CNS,20.1 µM
same,GI50,SF-539 CNS,2.42 µM
same,TGI,SF-539 CNS,6.86 µM
same,GI50,NCI-H226 lung,3.74 µM
same,TGI,NCI-H226 lung,16.8 µM
same,GI50,MDA-MB-468 breast,1.85 µM
same,TGI,MDA-MB-468 breast,4.61 µM
same,GI50,M14 melanoma,2.61 µM
same,TGI,M14 melanoma,7.88 µM
same,GI50,DU-145 prostate,4.14 µM
same,TGI,DU-145 prostate,20.7 µM
same,GI50,MDA-MB-231 breast,1.8 µM
same,TGI,MDA-MB-231 breast,3.75 µM
same,GI50,SK-MEL-2 melanoma,2.08 µM
same,TGI,SK-MEL-2 melanoma,4.41 µM
same,GI50,SF-268 CNS,3.3 µM
same,TGI,SF-268 CNS,10.4 µM
same,GI50,T-47D breast,9.57 µM
same,TGI,T-47D breast,23.9 µM
same,GI50,UACC-62 melanoma,2.23 µM
same,TGI,UACC-62 melanoma,5.8 µM
same,GI50,MDA-MB-435,1.75 µM
same,TGI,MDA-MB-435,4.77 µM
same,GI50,IGROV1 ovarian,8.74 µM
same,TGI,IGROV1 ovarian,21.6 µM
same,GI50,UO-31 renal,> 100 µM
same,TGI,UO-31 renal,> 100 µM
same,GI50,CCRF-CEM leukemia,5.39 µM
same,TGI,CCRF-CEM leukemia,26.3 µM
same,GI50,A498 renal,17.1 µM
same,TGI,A498 renal,31.8 µM
same,GI50,U251 CNS,4.16 µM
same,TGI,U251 CNS,14.5 µM
